Experimental data: patent US20150274664A1 (MERCK SHARP & DOHME CORP., priority 2012, published 2015)

Target: T1, human SNP variant (S309L) of GPR119 (Homo sapiens, UniProt Q8TDV5, S309L)
T1 construct: expressed in transfected cells; host or cells: HEK293 Flp-In (Invitrogen)
T1 sequence (Q8TDV5 1-335 S309L): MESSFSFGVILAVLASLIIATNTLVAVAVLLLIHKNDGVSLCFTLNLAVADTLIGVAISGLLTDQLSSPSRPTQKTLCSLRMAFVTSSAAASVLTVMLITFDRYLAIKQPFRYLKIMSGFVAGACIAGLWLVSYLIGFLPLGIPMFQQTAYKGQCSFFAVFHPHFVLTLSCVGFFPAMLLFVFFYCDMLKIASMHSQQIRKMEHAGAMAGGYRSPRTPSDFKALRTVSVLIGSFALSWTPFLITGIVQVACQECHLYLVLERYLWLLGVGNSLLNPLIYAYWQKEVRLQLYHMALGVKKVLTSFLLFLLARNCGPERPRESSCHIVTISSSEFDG
Test: GPR119 signaling, cAMP homogenous time resolved fluorescence (HTRF) assay
Assay type: cell-based
Conditions: HEK293 Flp-In cells stably transfected with human GPR119 (S309L), HTRF kit
Excerpt: Measurement of GPR119 Signaling Using a Cyclic AMP (cAMP) Homogenous Time Resolved Fluorescence (HTRF) Assay
Chinese hamster ovary (CHO) cell lines stably transfected with the permissive guanine nucleotide binding protein alpha 15 (Gals) and murine GPR119 were maintained in DMEM media containing FBS, penicillin-streptomycin, puromycin, and G418 (geneticin). Alternatively, human embryonic kidney (HEK)293 Flp-In cells (Invitrogen, Carlsbad, Calif.) were stably transfected with a human SNP variant (S309L) of GPR119 and maintained in DMEM media containing FBS, penicillin-streptomycin, and hygromycin. Agonist activation of the GPR119 receptor was measured in receptor transfected cells described above, treated with compounds of this invention, using a commercial homogenous time resolved fluorescence (HTRF) kit for measurement of cAMP (CisBio, Bedford, Mass.). The assay was performed in 96-well half-volume plates (murine) or 384-well plates (human) following the manufacturers instructions. Briefly, suspended cells were incubated with a dose titration of test compound at RT for 60 min, lysed, and incubated with HTRF reagents for an additional 60 min. The plate was read using an Envision multilabel reader (Perkin Elmer) adjusted to read time resolved fluorescence and the cAMP concentrations were extrapolated from a cAMP calibration curve. […] The concentration of test compound required to stimulate a half-maximal response (EC50), and efficacy as compared to an internal agonist control, was determined from a sigmoidal 4-parameter curve fit of the resulting plot of normalized activity versus compound concentration.

Compound | EC50
CS(=O)(=O)c1ccc(OCC[C@@H]2C[C@H]2C2CCN(c3nc(C4CCC4)no3)CC2)nc1 [Example 114, 3-cyclobutyl-5-(4-((1S,2S)-2-(2-((5-(methylsulfonyl)pyridin-2-yl)oxy)ethyl)cyclopropyl)piperidin-1-yl)-1,2,4-oxadiazole] | 4.8 nM
COCc1cnc(N2CCC([C@H]3C[C@@H]3CCNc3ncc(-n4cnnn4)cn3)CC2)nc1 [Example 124, N-(2-((1R,2S)-2-(1-(5-(methoxymethyl)pyrimidin-2-yl)piperidin-4-yl)cyclopropyl)ethyl)-5-(1H-tetrazol-1-yl)pyrimidin-2-amine] | 5.2 nM
CS(=O)(=O)c1ccc(OCC[C@@]2(C#N)C[C@@H]2C2CCN(c3ncc(Cl)cn3)CC2)cc1 [Example 127, (1S,2R)-2-(1-(5-chloropyrimidin-2-yl)piperidin-4-yl)-1-(2-(4-(methylsulfonyl)phenoxy)ethyl)cyclopropanecarbonitrile] | 3 nM
CS(=O)(=O)c1ccc(NCC[C@H]2C[C@@H]2C2CCN(c3ncc(Cl)cn3)CC2)cc1 [Example 128, N-(2-((1R,2S)-2-(1-(5-chloropyrimidin-2-yl)piperidin-4-yl)cyclopropyl)ethyl)-4-(methylsulfonyl)aniline] | 6.7 nM
